Tested on: HCV replicon RNA-containing Huh7 cells (clone A cells)
Experiment: HCV replicon assay (replicon RNA by RT-PCR, ΔCt HCV, EC90)
Type: cell-based
Conditions: Hepatitis C virus, Huh-7, 96 h; for log reduction at 50 µM: read-out: Log10 Reduction at 50 μM
Method: HCV replicon assay. HCV replicon RNA-containing Huh7 cells (clone A cells; Apath, LLC, St. Louis, Mo.) were kept at exponential growth in Dulbecco's modified Eagle's medium (high glucose) containing 10% fetal bovine serum, 4 mM L-glutamine and 1 mM sodium pyruvate, 1×nonessential amino acids, and G418 (1,000 μg/ml). Antiviral assays were performed in the same medium without G418. Cells were seeded in a 96-well plate at 1,500 cells per well, and test compounds were added immediately after seeding. Incubation time 4 days. At the end of the incubation step, total cellular RNA was isolated (RNeasy 96 kit; Qiagen). Replicon RNA and an internal control (TaqMan rRNA control reagents; Applied Biosystems) were amplified in a single-step multiplex RT-PCR protocol as recommended by the manufacturer. The HCV primers and probe were designed with Primer Express software (Applied Biosystems) and covered highly conserved 5′-untranslated region (UTR) sequences (sense, 5′-AGCCATGGCGTTAGTA(T)GAGTGT-3′ (SEQ ID NO: 1), and antisense, 5′-TTCCGCAGACCACTATGG-3′ (SEQ ID NO: 2); probe, 5′-FAM-[…]-TAMRA-3′ (SEQ ID NO: 3)).
To express the antiviral effectiveness of a compound, the threshold RT-PCR cycle of the test compound was subtracted from the average threshold RT-PCR cycle of the no-drug control (ΔCtHCV). A ΔCt of 3.3 equals a 1-log 10 reduction (equal to the 90% effective concentration [EC90]) in replicon RNA levels. The cytotoxicity of the test compound could also be expressed by calculating the ΔCtrRNA values. The ΔΔCt specificity parameter could then be introduced (ΔCtHCV−ΔCtrRNA), in which the levels of HCV RNA are normalized for the rRNA levels and calibrated against the no-drug control.

Row | SMILES | EC90 | log reduction at 50 µM
1 | COC(=O)[C@H](C)NP(=O)(OC[C@H]1O[C@@H](n2ccc(=O)[nH]c2=O)[C@](C)(F)[C@@H]1O)Oc1ccccc1 (stereo partly drawn) [Example 5, 2′-Deoxy-2′-fluoro-2′-C-methyluridine 5′-(phenylmethoxy-alanyl phosphate)] | 3 µM | 1.21
2 | COC(=O)[C@@H](NP(=O)(OC[C@H]1O[C@@H](n2ccc(=O)[nH]c2=O)[C@](C)(F)[C@@H]1O)Oc1ccccc1)C(C)C (stereo partly drawn) [Example 6, 2′-Deoxy-2′-fluoro-2′-C-methyluridine 5′-(phenylmethoxy-valyl phosphate)] |  | 0.45
3 | COC(=O)[C@@H](NP(=O)(OC[C@H]1O[C@@H](n2ccc(=O)[nH]c2=O)[C@](C)(F)[C@@H]1O)Oc1ccc(Br)cc1)C(C)C (stereo partly drawn) [Example 7, 2′-Deoxy-2′-fluoro-2′-C-methyluridine 5′-(4-bromophenylmethoxy-valyl phosphate)] |  | -0.31
4 | COC(=O)[C@H](C)NP(=O)(OC[C@H]1O[C@@H](n2ccc(=O)[nH]c2=O)[C@](C)(F)[C@@H]1O)Oc1ccc(Br)cc1 (stereo partly drawn) [Example 8, 2′-Deoxy-2′-fluoro-2′-C-methyluridine 5′-(4-bromophenylmethoxy-alanyl phosphate)] | 2.11 µM | 1.48
5 | COC(=O)[C@H](C)NP(=O)(OC[C@H]1O[C@@H](n2ccc(N)nc2=O)[C@](C)(F)[C@@H]1O)Oc1ccccc1 (stereo partly drawn) [Example 10, 2′-Deoxy-2′-fluoro-2′-C-methylcytidine 5′-(phenylmethoxy-alanyl phosphate)] | 19.2 µM | 1.25
6 | COC(=O)[C@@H](NP(=O)(OC[C@H]1O[C@@H](n2ccc(N)nc2=O)[C@](C)(F)[C@@H]1O)Oc1ccc(Br)cc1)C(C)C (stereo partly drawn) [Example 11, 2′-Deoxy-2′-fluoro-2′-C-methylcytidine 5′-(4-bromophenylmethoxy-valyl phosphate)] |  | 0.55
7 | COC(=O)[C@@H](NP(=O)(OC[C@H]1O[C@@H](n2ccc(N)nc2=O)[C@](C)(F)[C@@H]1O)Oc1ccccc1)C(C)C (stereo partly drawn) [Example 12, 2′-deoxy-2′-fluoro-2′-C-methylcytidine 5′-(phenylmethoxy-valyl phosphate)] |  | -0.31
8 | COC(=O)CNP(=O)(OC[C@H]1O[C@@H](n2ccc(=O)[nH]c2=O)[C@](C)(F)[C@@H]1O)Oc1ccccc1 (stereo partly drawn) [compound 15] | 0.86 µM | 
9 | CC(C)OC(=O)[C@H](C)NP(=O)(OC[C@H]1O[C@@H](n2ccc(=O)[nH]c2=O)[C@](C)(F)[C@@H]1O)Oc1ccccc1 (stereo partly drawn) [compound 25] | 0.39 µM | 2.22
10 | CCOC(=O)[C@H](C)NP(=O)(OC[C@H]1O[C@@H](n2ccc(=O)[nH]c2=O)[C@](C)(F)[C@@H]1O)Oc1ccc(F)cc1 (stereo partly drawn) [compound 27] | 0.66 µM | 2.25
11 | CC(C)OC(=O)[C@H](C)NP(=O)(OC[C@H]1O[C@@H](n2ccc(=O)[nH]c2=O)[C@](C)(F)[C@@H]1O)Oc1ccc(F)cc1 (stereo partly drawn) [compound 28] | 0.75 µM | 2.16
12 | CC(C)OC(=O)[C@H](C)NP(=O)(OC[C@H]1O[C@@H](n2ccc(=O)[nH]c2=O)[C@](C)(F)[C@@H]1O)Oc1ccccc1Cl (stereo partly drawn) [compound 36] | 21.9 µM | 1.64
13 | CC(C)OC(=O)[C@H](C)NP(=O)(OC[C@H]1O[C@@H](n2ccc(=O)[nH]c2=O)[C@](C)(F)[C@@H]1O)Oc1ccc(Cl)cc1 (stereo partly drawn) [compound 39] | 0.47 µM | 1.78
14 | C[C@H](NP(=O)(OC[C@H]1O[C@@H](n2ccc(=O)[nH]c2=O)[C@](C)(F)[C@@H]1O)Oc1ccccc1)C(=O)OC1CCCCC1 (stereo partly drawn) [compound 49] | 0.126 µM | 2.69
15 | CCCCOC(=O)[C@H](C)NP(=O)(OC[C@H]1O[C@@H](n2ccc(=O)[nH]c2=O)[C@](C)(F)[C@@H]1O)Oc1ccccc1Cl (stereo partly drawn) [compound 53] | < 0.3 µM | 1.33
16 | CC(C)OC(=O)[C@H](C)NP(=O)(OC[C@H]1O[C@@H](n2ccc(=O)[nH]c2=O)[C@](C)(F)[C@@H]1O)Oc1ccc(Br)cc1 (stereo partly drawn) [compound 54] | 0.57 µM | 1.55
17 | C[C@H](NP(=O)(OC[C@H]1O[C@@H](n2ccc(=O)[nH]c2=O)[C@](C)(F)[C@@H]1O)Oc1ccc(F)cc1)C(=O)OC1CCCCC1 (stereo partly drawn) [compound 55] | < 0.3 µM | 2.38
18 | COC(=O)[C@H](C)NP(=O)(OC[C@H]1O[C@@H](N2C=NC3C(NC4CCCC4)=NC(N)=NC32)[C@](C)(F)[C@@H]1O)Oc1ccccc1 (stereo partly drawn) [compound 69] | < 0.3 µM | 2.25
19 | COC(=O)[C@H](C)NP(=O)(OC[C@H]1O[C@@H](N2C=NC3C(N4CCC4)=NC(N)=NC32)[C@](C)(F)[C@@H]1O)Oc1ccccc1 (stereo partly drawn) [compound 70] | < 0.3 µM | 2.25
